Data reported in article PMC6370829, “NADP^+ is an endogenous PARP inhibitor in DNA damage response and tumor suppression” (Nature Communications, 2019).

Tests used:
PARP2 = target: T1, PARP2 (Homo sapiens, UniProt Q9UGN5); assay: […]NADP+ binding to immobilized protein (TLC); also inhibition of auto-PARylation
T1 construct: HIS-PARP2

PARP10 [1] = target: T2, PARP10 (Homo sapiens, UniProt Q53GL7); assay: […]NADP+ binding to immobilized protein (TLC); also inhibition of auto-MARylation
T2 construct: GST-PARP10
T2 sequence (Q53GL7 1-1025): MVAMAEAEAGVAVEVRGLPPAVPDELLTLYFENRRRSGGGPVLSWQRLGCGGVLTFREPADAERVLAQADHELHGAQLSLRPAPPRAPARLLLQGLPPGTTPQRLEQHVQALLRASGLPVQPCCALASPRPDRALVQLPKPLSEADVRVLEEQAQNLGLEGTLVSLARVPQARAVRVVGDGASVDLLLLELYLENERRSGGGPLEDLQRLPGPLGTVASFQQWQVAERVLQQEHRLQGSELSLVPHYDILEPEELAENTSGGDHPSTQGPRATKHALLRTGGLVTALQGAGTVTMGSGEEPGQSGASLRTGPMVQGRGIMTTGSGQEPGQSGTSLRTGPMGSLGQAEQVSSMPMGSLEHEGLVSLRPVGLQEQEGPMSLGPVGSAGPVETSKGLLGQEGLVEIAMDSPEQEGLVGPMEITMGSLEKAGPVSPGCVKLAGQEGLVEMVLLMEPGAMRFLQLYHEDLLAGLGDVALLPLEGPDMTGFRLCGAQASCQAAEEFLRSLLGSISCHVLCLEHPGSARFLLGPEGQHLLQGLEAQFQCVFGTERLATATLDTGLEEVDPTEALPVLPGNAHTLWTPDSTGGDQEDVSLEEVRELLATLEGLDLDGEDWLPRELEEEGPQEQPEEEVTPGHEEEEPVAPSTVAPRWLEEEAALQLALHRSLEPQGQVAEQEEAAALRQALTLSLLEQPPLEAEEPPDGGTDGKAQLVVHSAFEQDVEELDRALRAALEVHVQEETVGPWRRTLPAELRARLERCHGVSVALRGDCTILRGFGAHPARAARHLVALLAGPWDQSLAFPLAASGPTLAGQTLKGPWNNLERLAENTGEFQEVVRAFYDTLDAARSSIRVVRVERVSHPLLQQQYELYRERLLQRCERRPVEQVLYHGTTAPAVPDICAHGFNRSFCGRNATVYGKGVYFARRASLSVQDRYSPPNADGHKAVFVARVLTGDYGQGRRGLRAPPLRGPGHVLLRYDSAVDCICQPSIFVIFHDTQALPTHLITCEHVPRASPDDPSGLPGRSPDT

PARP1 [2] = target: T3, PARP1 (Homo sapiens, UniProt P09874); assay: ITC; also […]NADP+ pull-down binding and inhibition of auto-PARylation; parameters: catalytic domain (GST-PARP1 CAT, aa. 662–1014) for ITC
Target sequence in this assay (P09874 662-1014): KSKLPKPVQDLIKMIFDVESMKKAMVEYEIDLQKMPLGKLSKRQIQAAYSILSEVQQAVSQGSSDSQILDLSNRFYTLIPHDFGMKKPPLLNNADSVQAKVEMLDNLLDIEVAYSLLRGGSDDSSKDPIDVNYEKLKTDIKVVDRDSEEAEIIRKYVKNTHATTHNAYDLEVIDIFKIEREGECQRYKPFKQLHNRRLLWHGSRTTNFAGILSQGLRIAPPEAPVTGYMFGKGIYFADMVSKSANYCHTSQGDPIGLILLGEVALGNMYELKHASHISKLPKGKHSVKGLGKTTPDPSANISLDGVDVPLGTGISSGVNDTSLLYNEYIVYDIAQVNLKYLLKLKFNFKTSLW

NADK = target: T4, NADK (Homo sapiens, UniProt O95544); assay: recombinant enzyme reaction, product confirmed by mass spectrometry; format: biochemical
T4 construct: recombinant NADK
T4 sequence (O95544 1-446): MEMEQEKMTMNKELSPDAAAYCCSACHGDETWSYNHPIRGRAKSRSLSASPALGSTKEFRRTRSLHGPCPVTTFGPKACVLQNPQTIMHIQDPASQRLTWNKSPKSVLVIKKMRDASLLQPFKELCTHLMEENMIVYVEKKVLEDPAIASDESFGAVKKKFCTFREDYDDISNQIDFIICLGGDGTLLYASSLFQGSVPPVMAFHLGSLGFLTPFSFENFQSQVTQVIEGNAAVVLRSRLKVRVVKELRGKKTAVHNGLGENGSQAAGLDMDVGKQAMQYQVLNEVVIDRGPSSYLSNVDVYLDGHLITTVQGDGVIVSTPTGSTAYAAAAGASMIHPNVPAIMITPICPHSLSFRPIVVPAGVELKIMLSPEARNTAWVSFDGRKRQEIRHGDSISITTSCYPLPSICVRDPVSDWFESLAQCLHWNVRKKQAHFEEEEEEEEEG

PARP1 [3] = target: T3, PARP1; assay: in vitro auto-PARylation, western blot and […]NAD+ autoradiography; format: biochemical; parameters: HIS-PARP1
Target sequence in this assay (P09874 2-1014): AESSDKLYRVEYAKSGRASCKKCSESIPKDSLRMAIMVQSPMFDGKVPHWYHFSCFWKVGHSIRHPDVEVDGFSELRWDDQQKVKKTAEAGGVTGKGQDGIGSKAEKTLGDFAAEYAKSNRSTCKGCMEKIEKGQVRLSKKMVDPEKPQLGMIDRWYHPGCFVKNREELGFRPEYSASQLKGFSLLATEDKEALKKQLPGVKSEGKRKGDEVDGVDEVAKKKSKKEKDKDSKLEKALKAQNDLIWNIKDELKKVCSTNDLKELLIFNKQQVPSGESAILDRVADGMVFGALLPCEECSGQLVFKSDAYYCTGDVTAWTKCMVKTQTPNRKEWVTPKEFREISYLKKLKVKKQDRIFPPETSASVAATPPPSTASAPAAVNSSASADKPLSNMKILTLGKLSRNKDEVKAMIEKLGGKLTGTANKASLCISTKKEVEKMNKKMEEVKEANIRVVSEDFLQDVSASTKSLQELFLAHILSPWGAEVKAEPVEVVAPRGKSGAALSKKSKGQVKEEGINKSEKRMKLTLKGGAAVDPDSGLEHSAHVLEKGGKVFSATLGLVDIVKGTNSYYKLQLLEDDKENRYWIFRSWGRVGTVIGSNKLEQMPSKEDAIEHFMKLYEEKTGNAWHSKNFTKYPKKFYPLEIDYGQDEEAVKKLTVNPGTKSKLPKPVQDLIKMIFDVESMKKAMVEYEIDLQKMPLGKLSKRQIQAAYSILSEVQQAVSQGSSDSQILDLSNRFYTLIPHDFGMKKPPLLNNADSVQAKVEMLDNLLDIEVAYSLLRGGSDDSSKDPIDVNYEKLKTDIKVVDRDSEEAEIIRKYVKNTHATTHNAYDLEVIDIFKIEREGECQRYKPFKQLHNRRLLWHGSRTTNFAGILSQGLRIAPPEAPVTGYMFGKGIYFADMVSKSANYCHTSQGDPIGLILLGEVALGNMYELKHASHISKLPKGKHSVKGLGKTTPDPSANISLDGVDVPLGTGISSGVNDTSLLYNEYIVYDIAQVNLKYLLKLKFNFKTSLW

PARP10 [4] = target: T2, PARP10; assay: in vitro auto-MARylation, autoradiography; format: biochemical

T1 sequence (Q9UGN5 whole entry): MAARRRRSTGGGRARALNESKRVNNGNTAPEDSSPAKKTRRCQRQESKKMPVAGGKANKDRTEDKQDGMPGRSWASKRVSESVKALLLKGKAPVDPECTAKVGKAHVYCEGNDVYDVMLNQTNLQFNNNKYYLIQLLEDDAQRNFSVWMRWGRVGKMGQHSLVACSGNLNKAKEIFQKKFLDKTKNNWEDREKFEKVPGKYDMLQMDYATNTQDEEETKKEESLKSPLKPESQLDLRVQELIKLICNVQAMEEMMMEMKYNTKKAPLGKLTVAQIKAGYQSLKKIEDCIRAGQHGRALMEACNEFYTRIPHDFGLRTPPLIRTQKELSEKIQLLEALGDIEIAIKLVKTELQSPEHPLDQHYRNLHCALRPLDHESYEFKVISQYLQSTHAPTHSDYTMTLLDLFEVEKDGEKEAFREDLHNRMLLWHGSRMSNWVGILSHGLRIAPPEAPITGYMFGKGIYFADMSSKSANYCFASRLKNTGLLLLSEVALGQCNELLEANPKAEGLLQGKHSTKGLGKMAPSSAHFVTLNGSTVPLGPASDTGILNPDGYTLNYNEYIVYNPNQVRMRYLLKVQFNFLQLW

Kd (PARP1 [2]) [µM] | Compound | [32P]NADP+ binding to immobilized protein (TLC); also inhibition of auto-PARylat (PARP2) | [32P]NADP+ binding to immobilized protein (TLC); also inhibition of auto-MARylat (PARP10 [1]) | recombinant enzyme reaction, product confirmed by mass spectrometry (NADK) | in vitro auto-PARylation, western blot and [32P]NAD+ autoradiography (PARP1 [3]) | in vitro auto-MARylation, autoradiography (PARP10 [4])
~39 | NC(=O)c1ccc[n+]([C@@H]2O[C@H](COP(=O)(O)OP(=O)(O)OC[C@H]3O[C@@H](n4cnc5c(N)ncnc54)[C@H](OP(=O)(O)O)[C@@H]3O)[C@@H](O)[C@H]2O)c1 [NADP^+] | found that PARP1, PARP2, and PARP10 indeed were able to bind NADP^+ (Fig. 3a) | found that PARP1, PARP2, and PARP10 indeed were able to bind NADP^+ (Fig. 3a) | Formation of NADP^+ by our recombinant protein was confirmed by mass spectrometry | – | –
– | NC(=O)c1ccc[n+]([C@@H]2O[C@H](COP(=O)([O-])OP(=O)(O)OC[C@H]3O[C@@H](n4cnc5c(N)ncnc54)[C@H](O)[C@@H]3O)[C@@H](O)[C@H]2O)c1 [NAD^+] | – | – | recombinant NADK protein that can transfer phosphate moiety from ATP to NAD^+ to synthesize NADP^+ | with NAD^+, PARP1 quickly synthesized PAR chains and autoPARylated itself | Auto-MARylation of PARP10 was examined by autoradiography
